The values that follow come from publication PMC8344021, “Discovery of Small Molecule Bak Activator for Lung Cancer Therapy” (Theranostics, 2021).

Structures are written as SMILES.

Experiment [1] deals with NSCLC and SCLC cell lines. Put plainly: Dynamic BH3 profiling in panel of NSCLC and SCLC cell lines. The format is cell-based, human. As to conditions: 1μM, 16h. The procedure:
DBP using Bim peptide was carried out as described previously [24]-[26]. After treatment with BKA-073, venetoclax (ABT-199) or DMSO control for 16h, cells were collected, washed and resuspended at 2 x 10^6 cells/ mL in mannitol experimental buffer (MEB) [150 mM D-mannitol, 10 mM HEPES-KOH (pH 7.5), 50 mM KCl, 20 μM EGTA, 20 μM EDTA, 0.1% BSA, and 5 mM succinate] as described. One volume of the 4x cell suspension was added to one volume of a 4x dye solution containing 4 μM JC-1, […] oligomycin, 0.02% digitonin, 20mM β-mercaptoethanol in MEB. The 2x cell/dye mixture was allowed to rest for 5-10 min at room temperature to allow for permeabilization and JC-1 staining. A total of 15μl of the 2x cell/dye mixture was loaded into a 384-well plate that contained 15µL of Bim BH3 peptide (0.03, 0.1, 0.3, 1, and 3 μM) in MEB, shaken for 15 s inside the reader, and the fluorescence at 590 nm monitored every 5 min for 180 min at 32 °C. The dynamic BH3 profile (∆ % Priming) was calculated as described [24]-[26].
Figure 1 Discovery of small molecule BKA-073 as a lead compound that targets BH3 domain of Bak and induces mitochondrial priming and apoptosis in lung cancer cells. (A) Schematic illustration of screening strategies used to identify the lead Bak agonist BKA-073 and its chemical structure. […] (C) Expression levels of Bak were analyzed by Western blot in NSCLC and SCLC cell lines. […]

The next experiment has as its system A549-IRR xenografts. Briefly: Radioresistant A549-IRR xenografts, tumor growth. In kind it is in vivo, Nu/Nu nude mice. As to conditions: 15 mg/kg/d, 4 weeks. The procedure:
Six-week-old female Nu/Nu nude mice were purchased from Envigo (Indianapolis, IN) and housed under pathogen-free conditions in microisolator cages. The animal propagation protocol was approved by the Emory Institutional Animal Care and Use Committee (IACUC) and the Emory Animal Ethics Committee. 3×10^6 lung cancer cells were injected into subcutaneous tissue in the flank region of nude mice. The tumors were allowed to grow to an average volume of 150~200 mm^3 prior to initiation of therapy as previously described, [29]. Patient-derived xenografts (PDXs, TKO-002 and TKO-005) were established as part of an IRB-approved phase II co-clinical trial of arsenic trioxide in patients with relapsed SCLC who had failed standard platinum-based chemotherapy. Tumor samples were obtained by image-guided biopsy and were directly implanted into Nu/Nu nude mice without intervening propagation in plastic culture plates. Direct serial propagation of growing tumor occurred for up to 5 generations. […] During treatment, tumor volume (V) was measured by caliper measurements once every two days as described previously. […]
Figure S7. […] (A) Expression levels of Bak in A549-P versus A549-IRR cells, H358-P versus H358 -IRR cells or H460-P versus H460-IRR cells were analyzed by Western blot. […]
Tumor volume was measured once every 2 days. After treatment, mice were sacrificed and tumors were removed and analyzed. […]

Regarding `COc1ccc2nc3ccccc3c(NCCNCC(C)O)c2c1` (centres unmarked) [BKA-073], the “induction of mitochondrial priming” value in experiment [1] is on record as “potently induced”. Also, the tumor growth entry with A549-IRR xenografts was “repressed xenografts”.
